Measurements taken from patent US20110184027A1, “TISSUE SELECTIVE STEAROYL-COA DESATURASE 1 INHIBITORS AND CELL BASED SCREENING ASSAY FOR THEIR IDENTIFICATION” (GLENMARK PHARMACEUTICALS S.A., priority 2008, published 2011).

Key:
SCD-1 [1] = target: T1, SCD-1 (Homo sapiens, UniProt O00767); assay: Whole cell based SCD-1 assay in human skin cell line A431 (tritiated stearoyl CoA, labelled water release); parameters: includes cells which express the SCD-1 gene product endogenously; endogenous in cells; host or cells: A431 (ATCC CRL 1555), not induced; conditions: for IC35: EC35; for Fold Skin:liver: ratio of EC35 skin cells (A431) to EC35 liver cells (HepG2)
T1 sequence (O00767 1-359): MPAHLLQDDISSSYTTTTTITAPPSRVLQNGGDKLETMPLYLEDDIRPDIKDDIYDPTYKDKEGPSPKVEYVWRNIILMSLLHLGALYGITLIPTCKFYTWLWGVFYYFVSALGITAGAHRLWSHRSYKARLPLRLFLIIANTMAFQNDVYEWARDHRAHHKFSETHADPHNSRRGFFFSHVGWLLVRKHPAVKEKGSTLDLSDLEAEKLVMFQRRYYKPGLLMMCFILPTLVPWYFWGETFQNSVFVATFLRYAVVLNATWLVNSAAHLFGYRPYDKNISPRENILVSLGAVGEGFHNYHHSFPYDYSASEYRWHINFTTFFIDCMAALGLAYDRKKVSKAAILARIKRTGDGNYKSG
Protocol: (§1) An assay was developed using whole cells to screen for agents that modulate SCD-1 activity. Three cell lines namely human liver cell line (hepatocellular carcinoma HepG2 ATCC HB 8065), human skin cell line (epidermal carcinoma A431 ATCC CRL 1555) and human corneal epithelial progenitor (HCEP) cells (CELLNTEC advanced cell systems) were used. HepG2 cells were seeded in a 24 well plate in complete MEM medium (Hyclone). A431 cells were seeded in a 12 well plate in complete DMEM medium (Sigma). HCEP cells were seeded in a 96 well plate in defined corneal epithelial medium CnT 20 (CELLNTEC advanced cell systems). HepG2 cells were induced with LXR agonist T0901317 (Cayman chemicals) in medium containing high glucose and fatty acid free BSA for 3 days with media change every day (Wang et al, (2004) Journal of Lipid Research, 45, 972-980). A431 cells were not induced. (3). The cells were preincubated in plain medium with the known SCD-1 modulators namely CLA (conjugated linoleic acid) (Sigma) and TSA (9 thiastearic acid) (Cayman chemicals) for 15-30 minutes at 37 deg C. and further challenged with 0.25 to 7.5 μCi tritiated Stearoyl CoA (American Radiolabelled chemicals). The cells were incubated for last 6 hours in 5% CO2 incubator at 37 deg C. or in specific embodiments for 4 hours to 30 hours. At the end of the incubation, the incubation medium was collected into tubes. Dowex AG 1-X8 resin (Biorad laboratories) pre-equilibrated with distilled ethanol:water was added to the tubes to separate the unconsumed substrate from the labelled water. The tubes were then vortexed for 5 minutes and centrifuged at 14000 rpm for 20 minutes at room temperature. The supernatant from the tubes was mixed with the scintillation fluid and radioactivity counted in the Packard topcount scintillation counter (Perkin Elmer). Counts obtained were normalised per million cells. Inhibition of enzyme activity was calculated as the percent of maximum reaction control that contained no test compound.
(§2) The whole cell based assay was adapted to screen for agents that differentially modulate SCD-1 activity present in different tissues. Three cell lines namely human liver cell line (hepatocellular carcinoma HepG2), human skin cell line (epidermal carcinoma A431) and human corneal epithelial progenitor (HCEP) cells were used. HepG2 cells were seeded in a 24 well plate in complete MEM medium. A431 cells were seeded in a 12 well plate in complete DMEM medium. HCEP cells were seeded in a 96 well plate in defined corneal epithelial medium CnT 20. HepG2 cells were induced with LXR agonist T0901317 in medium containing 4.5 gm/litre glucose and 0.1% fatty acid free BSA for 3 days with media change every day (Wang et al, (2004) Journal of Lipid Research, 45, 972-980). A431 cells and HCEP cells were not induced. (3). The cells were preincubated in plain medium 0.1 nM to 10 μM concentrations potential SCD-1 modulator compounds for 15-30 minutes at 37 deg C. and further challenged with 0.25 to 7.5 μCi tritiated Stearoyl CoA. The cells were incubated for last 6 hours in 5% CO2 incubator at 37 deg C. or in specific embodiments for 4 hours to 30 hours. At the end of the incubation, the incubation medium was collected into tubes. Dowex AG 1-X8 resin pre-equilibrated with distilled ethanol:water was added to the tubes to separate the unconsumed substrate from the labelled water. The tubes were then vortexed for 5 minutes and centrifuged at 14000 rpm for 20 minutes at room temperature. The supernatant from the tubes was mixed with the scintillation fluid and radioactivity counted in the Packard topcount scintillation counter. Counts obtained were normalised per million cells. Inhibition of enzyme activity was calculated as the percent of maximum reaction control that contained no test compound. For active compounds, EC35 was calculated from dose response curve by non linear regression analysis using GraphPadPRISM software. The ratio of EC35 for skin cells to EC35 for liver cells was calculated. […]

SCD-1 [2] = target: T1, SCD-1; assay: Whole cell based SCD-1 assay in human liver cell line HepG2 (tritiated stearoyl CoA, labelled water release); parameters: includes cells which express the SCD-1 gene product endogenously; endogenous in cells; host or cells: A431 (ATCC CRL 1555), not induced; conditions: EC35
Protocol: as §1, §2

SCD-1 [3] = target: T1, SCD-1; assay: as above; parameters: includes cells which express the SCD-1 gene product endogenously; endogenous in cells; host or cells: A431 (ATCC CRL 1555), not induced; conditions: for Fold Liver:skin: ratio of EC35 liver cells (HepG2) to EC35 skin cells (A431)
SCD-1 [4] = target: T1, SCD-1; assay: Whole cell based SCD-1 assay in human skin cell line A431 (tritiated stearoyl CoA, labelled water release); parameters: includes cells which express the SCD-1 gene product endogenously; endogenous in cells; host or cells: A431 (ATCC CRL 1555), not induced
SCD-1 [5] = target: T1, SCD-1; assay: Whole cell based SCD-1 assay in human corneal epithelial progenitor (HCEP) cells; parameters: includes cells which express the SCD-1 gene product endogenously; endogenous in cells; conditions: for IC35: HCEP human corneal epithelial cells, EC35, read-out: hCornea EC35; for Fold Liver:Cornea: ratio of EC35 liver cells (HepG2) to EC35 corneal cells (HCEP)
Protocol: as §1
The whole cell based assay was adapted to screen for agents that differentially modulate SCD-1 activity present in different tissues. Three cell lines namely human liver cell line (hepatocellular carcinoma HepG2), human skin cell line (epidermal carcinoma A431) and human corneal epithelial progenitor (HCEP) cells were used. HepG2 cells were seeded in a 24 well plate in complete MEM medium. A431 cells were seeded in a 12 well plate in complete DMEM medium. HCEP cells were seeded in a 96 well plate in defined corneal epithelial medium CnT 20. HepG2 cells were induced with LXR agonist T0901317 in medium containing 4.5 gm/litre glucose and 0.1% fatty acid free BSA for 3 days with media change every day (Wang et al, (2004) Journal of Lipid Research, 45, 972-980). A431 cells and HCEP cells were not induced. (3). […] The cells were incubated for last 6 hours in 5% CO2 incubator at 37 deg C. or in specific embodiments for 4 hours to 30 hours. At the end of the incubation, the incubation medium was collected into tubes. […] The supernatant from the tubes was mixed with the scintillation fluid and radioactivity counted in the Packard topcount scintillation counter. […] Inhibition of enzyme activity was calculated as the percent of maximum reaction control that contained no test compound. For active compounds, EC35 was calculated from dose response curve by non linear regression analysis using GraphPadPRISM software. The ratio of EC35 for skin cells to EC35 for liver cells was calculated.

[6] = A-431, A431 human skin cells, read-out: hSkin EC35
[7] = HepG2 human liver cells, read-out: hLiver EC35
[8] = HepG2 liver cells, LXR agonist induced, read-out: Inhibition of SCD-1 activity in whole cell based assay (EC35), HepG2

Compound	IC35 (SCD-1 [1]; [6])	Fold Skin:liver (SCD-1 [1])	IC35 (SCD-1 [2]; [7])	further results
Cc1nc(C#Cc2ccc(O)cc2)sc1C(=O)NCCc1ccccc1 [compound 2]	982 nM	2.00	490 nM	
Cc1nc(-n2cnn(Cc3cccc(F)c3F)c2=O)sc1C(=O)NCc1ccccc1 [compound 3]	33.8 nM	1.15	29.4 nM	
conjugated linoleic acid [CLA, reference compound]				IC35 (SCD-1 [1]; A431 skin cells, not induced, read-out: Inhibition of SCD-1 activity in whole cell based assay (EC35), A431): 16350 nM; Percentage inhibition of SCD-1, HepG2 (SCD-1 [3]; HepG2 cells, at 300 μM): (~80.01% at 300 μM); Percentage inhibition of SCD-1, A431 (SCD-1 [4]; A431 cells, at 300 μM): (~91% at 300 μM); IC35 (SCD-1 [2]; [8]): 22660 nM; Percentage inhibition of SCD-1, HCEP (SCD-1 [5]; HCEP corneal cells, at 300 μM): ~80% at 300 μM
Cc1nc(-c2ccc(-c3ccc(O)cc3)nc2)sc1C(=O)NCCc1ccccc1 [compound 2]	168 nM		438 nM	Fold Liver:skin (SCD-1 [3]): 2.60
Cc1nc(C#Cc2ccc(O)cc2)sc1C(=O)NCCc1ccc(F)cc1 [compound 2]			480 nM	IC35 (SCD-1 [5]): 53.2 nM; Fold Liver:Cornea (SCD-1 [5]): 9.02
CCCCCCCCCSCCCCCCCC(=O)O [TSA, 9 thiastearic acid, reference compound]				IC35 (SCD-1 [1]; A-431, A431 skin cells, not induced, read-out: Inhibition of SCD-1 activity in whole cell based assay (EC35), A431): ~100000 nM; inhibition at 100 µM (SCD-1 [3]; HepG2, HepG2 liver cells, at 100 μM, read-out: Percentage inhibition of SCD-1, HepG2): 58%; inhibition at 100 µM (SCD-1 [4]; A-431, A431 skin cells, at 100 μM, read-out: Percentage inhibition of SCD-1, A431): 52%; IC35 (SCD-1 [2]; [8]): ~100000 nM
Cc1nc(C#Cc2ccc(O)cc2)sc1C(=O)NCc1ccccc1 [compound 1]			363 nM	IC35 (SCD-1 [5]): 218 nM; Fold Liver:Cornea (SCD-1 [5]): 1.66
Cc1nc(C#Cc2cccc(O)c2)sc1C(=O)NCc1ccccc1 [compound 1]	6900 nM	2.00	3440 nM	
Cc1nc(C#Cc2ccc(O)cc2)sc1C(=O)NCc1ccc(Cl)cc1 [compound 3]	> 10000 nM	>15	698 nM	
Cc1nc(-n2cnn(Cc3ccc(F)cc3)c2=O)sc1C(=O)NCc1ccccc1 [compound 2]	37.8 nM	0.95	39.5 nM	
Cc1nc(C#Cc2ccc(O)cc2)sc1C(=O)NCc1cccnc1 [compound 1]	2140 nM	0.93	2300 nM	
Cc1nc(-c2ccc(-c3ccc(O)cc3)nc2)sc1C(=O)NCCCc1ccccc1 [compound 1]	180 nM		266 nM	Fold Liver:skin (SCD-1 [3]): 1.47
